Source: patent US7638506B2, “Granular agrochemical composition” (Kumiai Chemical Industry Co., Ltd., priority 2002, dated 2009)

Test: pKa of the acidic agrochemically active ingredient
Format: physicochemical
Settings: not given
Source text: In the case of using the above-described acidic agrochemically active ingredient having the prescribed pKa, the pKa of the ingredient can be measured by, for example, a method described in “Jikken Kagaku Koza 5, (Thermal measurement and Equilibrium)”, Maruzene, p. 469-474, Jan. 20 (1958) and the like.

| SMILES | pKa |
| --- | --- |
| Cc1cccc2sc3nncn3c12 [tricyclazole, 5-methyl-1,2,4-triazolo[3,4-b]benzothiazole] | 1.6 |
| CCc1cccc(C(O)c2nc(OC)cc(OC)n2)c1NS(=O)(=O)C(F)F (stereo not drawn) [Compound B, 2-[(4,6-dimethoxypyrimidin-2-yl)hydroxymethyl]-6-ethyl-N-difuloromethanesulfonylanilide] | 6.17 |
| COCc1cccc(C(O)c2nc(OC)cc(OC)n2)c1NS(=O)(=O)C(F)F (stereo not drawn) [Compound A, 2-[(4,6-dimethoxypyrimidin-2-yl)hydroxymethyl]-6-methoxymethyl-N-difuloromethanesulfonylanilide] | 5.75 |
| CCOP(=O)(Sc1ccccc1)Sc1ccccc1 [EDDP] | 10.5 |
| COC(=O)c1ccccc1CS(=O)(=O)NC(=O)Nc1nc(OC)cc(OC)n1 [bensulfuron-methyl, methyl α-(4,6-dimethoxypyrimidin-2-ylcarbamoylsulfamoyl)-o-toluate] | 5.03 |
| CNC(=O)Oc1ccccc1OC(C)C [PHC] | 11.5 |

Same assay, conditions: read-out: pKa

| SMILES | pKa |
| --- | --- |
| COc1cc(OC)nc(NC(=O)NS(=O)(=O)c2c(Cl)nc3ccccn23)n1 [imazosulfuron, 1-(2-chloroimidazo[1,2-a]pyridin-3-ylsulfonyl)-3-(4,6-dimethoxypyrimidin-2-yl)urea] | 4 |
| CCOC(=O)c1cnn(C)c1S(=O)(=O)NC(=O)Nc1nc(OC)cc(OC)n1 [pyrazosulfuron-ethyl, ethyl 5-(4,6-dimethoxypyrimidin-2-ylcarbamoylsulfamoyl)-1-methylpyrazole-4-carboxylate] | 3.91 |
| COc1cc(OC)nc(NC(=O)NS(=O)(=O)c2c(-c3nnn(C)n3)cnn2C)n1 [azimsulfuron, 1-(4,6-dimethoxypyrimidin-2-yl)-3-[1-methyl-4-(2-methyl-2H-tetrazol-5-yl)pyrazol-5-ylsulfonyl]urea] | 3.6 |
